Each block holds one molecule with its values, some of them ahead of it. No end group written: not given here.
Target: T1, human TAS1R2-A574T/TAS1R3-WT (Homo sapiens, UniProt Q7RTX0+Q8TE23, A574T)
T1 construct: expressed in transfected cells; host or cells: HEK293T-Gα16gust44
T1 sequence (Q8TE23 20-839 A574T): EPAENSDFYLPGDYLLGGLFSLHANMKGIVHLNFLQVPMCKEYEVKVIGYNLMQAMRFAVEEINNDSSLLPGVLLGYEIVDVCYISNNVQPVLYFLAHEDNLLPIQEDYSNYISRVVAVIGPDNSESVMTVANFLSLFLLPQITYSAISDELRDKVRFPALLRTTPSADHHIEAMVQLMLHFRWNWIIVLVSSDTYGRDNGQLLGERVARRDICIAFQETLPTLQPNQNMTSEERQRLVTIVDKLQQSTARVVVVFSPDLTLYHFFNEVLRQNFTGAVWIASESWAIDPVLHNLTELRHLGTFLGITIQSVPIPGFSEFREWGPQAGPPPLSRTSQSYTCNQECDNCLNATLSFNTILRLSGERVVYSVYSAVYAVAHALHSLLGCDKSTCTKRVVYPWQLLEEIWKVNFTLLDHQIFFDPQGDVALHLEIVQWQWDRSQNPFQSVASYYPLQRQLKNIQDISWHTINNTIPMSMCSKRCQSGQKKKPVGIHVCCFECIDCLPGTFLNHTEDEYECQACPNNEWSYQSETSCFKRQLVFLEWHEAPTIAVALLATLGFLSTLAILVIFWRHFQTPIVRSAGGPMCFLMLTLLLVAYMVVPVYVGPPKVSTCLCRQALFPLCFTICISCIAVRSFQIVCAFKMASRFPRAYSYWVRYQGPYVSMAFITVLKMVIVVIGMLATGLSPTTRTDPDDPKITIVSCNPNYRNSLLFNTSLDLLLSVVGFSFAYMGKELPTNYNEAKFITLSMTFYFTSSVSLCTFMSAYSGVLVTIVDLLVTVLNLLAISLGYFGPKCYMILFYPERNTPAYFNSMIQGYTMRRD
T1 sequence (Q7RTX0 21-852): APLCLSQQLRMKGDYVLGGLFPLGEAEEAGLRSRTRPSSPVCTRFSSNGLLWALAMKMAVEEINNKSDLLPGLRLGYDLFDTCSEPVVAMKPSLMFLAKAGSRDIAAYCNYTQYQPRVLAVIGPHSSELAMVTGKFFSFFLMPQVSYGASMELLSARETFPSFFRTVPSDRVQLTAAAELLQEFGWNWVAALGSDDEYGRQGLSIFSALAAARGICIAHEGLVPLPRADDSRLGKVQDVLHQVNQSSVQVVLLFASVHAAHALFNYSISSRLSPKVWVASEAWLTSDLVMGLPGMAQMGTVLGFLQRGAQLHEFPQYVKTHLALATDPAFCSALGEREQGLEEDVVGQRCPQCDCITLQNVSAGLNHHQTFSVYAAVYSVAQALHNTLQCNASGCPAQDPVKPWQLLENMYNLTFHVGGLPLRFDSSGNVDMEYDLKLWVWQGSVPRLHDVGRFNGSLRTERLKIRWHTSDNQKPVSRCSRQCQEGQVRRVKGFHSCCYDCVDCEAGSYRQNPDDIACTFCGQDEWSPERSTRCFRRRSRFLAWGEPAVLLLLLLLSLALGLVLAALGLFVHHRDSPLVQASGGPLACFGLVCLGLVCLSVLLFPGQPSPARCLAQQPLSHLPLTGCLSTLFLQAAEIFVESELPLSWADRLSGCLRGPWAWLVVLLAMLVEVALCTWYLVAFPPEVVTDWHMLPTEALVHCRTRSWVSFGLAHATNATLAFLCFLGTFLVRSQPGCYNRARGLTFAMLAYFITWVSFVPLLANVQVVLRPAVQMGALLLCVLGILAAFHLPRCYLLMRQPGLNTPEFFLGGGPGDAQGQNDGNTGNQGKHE
Assay: Calcium mobilisation assay, TAS1R2 variant A574T with TAS1R3-WT
Type: cell-based
Conditions: for Max ΔF/F0: maximal signal amplitude
Excerpt: The coding sequences for TAS1R2 and TAS1R3 were commercially synthesised, and the human codon was optimised for expression in human cells. The coding sequences of human TAS1R2 and TAS1R3 were subcloned and inserted into the mammalian expression vectors pcDNA6/myc-HisA and pcDNA4/myc-HisA (Invitrogen; Thermo Fisher Scientific; Illkirch, France) between the EcoRI and NotI restriction sites, generating the plasmids pcDNA6-TAS1R2 and pcDNA4-TAS1R3, respectively. To increase protein expression in mammalian cells, an upstream start codon was used, which was a sequence called MAX, corresponding to the QBI SP163 element also described in pcDNA4-HisMax (Invitrogen; Thermo Fisher Scientific; Illkirch, France). To measure the expression level of the receptor by immunohistochemistry, we used the FLAG sequence ([…]) in the C-terminal position, which encodes the FLAG tag epitope. SNP variants of TAS1R2 and TAS1R3 were constructed based on […], respectively, using site-directed mutagenesis (Genewiz; Leipzig, Germany).
The HEK293T cells were kindly provided by Jay P. Slack (Givaudan Flavors Corporation; Cincinnati, OH, USA). HEK293T cells stably transfected with Gα16gust44 [43, 67] were seeded in poly-D-lysine-coated clear-bottom black 96-well plates (0.35 × 10^5 cells/well) in high-glucose DMEM supplemented with 2 mM GlutaMAX, 10% dialysed foetal bovine serum with penicillin/streptomycin and G418 (400 μg/mL) at 37 °C and 6.3% CO2 in a humidified atmosphere as previously reported. […] As a negative control, HEK293T cells were mock-transfected with the empty expression vector. After a further 24 h of incubation, the HEK293T cells were washed with C1 buffer (130 mM NaCl, 5 mM KCl, 10 mM HEPES pH 7.4 and 2 mM CaCl2). The 96-well plates containing the cells were then stimulated with sweet-tasting compounds. […] Different concentration ranges were tested depending on the sweet compound injected. The Ca^2+ changes were expressed as fractional changes in fluorescent light intensity: ΔF/F = (F − F0)/F0, where F was the fluorescent light intensity at each point, and F0 was the value of emitted fluorescent light prior to stimulus application. To calculate dose–response relationships, the changes in fluorescence upon stimulus application were averaged, mock-subtracted and baseline-corrected. The dose–response data obtained were adjusted using a 4-parameter logistic equation. The half-maximal effective concentrations (EC50 values) and maximal signal amplitudes were calculated using SigmaPlot software (version 15.0) (Systat Software; San Jose, CA, USA).
For in vitro calcium mobilisation assay performed on hTAS1R2-SNPs, hTAS1R3-SNPs and mTAS1R3-I60T, 6 to 7 concentrations were tested for each sweet compound, plus buffer alone. All concentration–receptor combinations were measured in duplicate, and each experiment was repeated at least 4 times (8 wells/concentration). Results were expressed for each concentration as ΔF/F mean ± SEM and represented as dose–response curves.

EC50: 658 ± 65 µM
R1 = Variant EC50/WT EC50: 0.9
Max ΔF/F0: 0.34 ± 0.02
Molecule: CC1=CC(=O)NS(=O)(=O)O1 [Acesulfame K, acesulfame K]

Molecule: O=S(=O)(O)NC1CCCCC1 [Cyclamate, cyclamate]
EC50: 1780 ± 49 µM

Molecule: C[C@H](CC[C@@H](O[C@@H]1O[C@H](CO[C@@H]2O[C@H](CO)[C@@H](O)[C@H](O)[C@H]2O)[C@@H](O)[C@H](O)[C@H]1O[C@@H]1O[C@H](CO)[C@@H](O)[C@H](O)[C@H]1O)C(C)(C)O)[C@H]1CC[C@@]2(C)[C@@H]3CC=C4[C@@H](CC[C@H](O[C@@H]5O[C@H](CO[C@@H]6O[C@H](CO)[C@@H](O)[C@H](O)[C@H]6O)[C@@H](O)[C@H](O)[C@H]5O)C4(C)C)[C@]3(C)[C@H](O)C[C@]12C [Mogroside V, mogroside V]
EC50: 16.7 ± 3.1 µM
R1 = Variant EC50/WT EC50: 1.0
Max ΔF/F0: 1.25 ± 0.08

EC50: 73.4 ± 8.4 µM
R1 = Variant EC50/WT EC50: 1.0
Max ΔF/F0: 0.81 ± 0.03
Molecule: COc1ccc(CCC(=O)c2c(O)cc(O[C@@H]3O[C@H](CO)[C@@H](O)[C@H](O)[C@H]3O[C@@H]3O[C@@H](C)[C@H](O)[C@@H](O)[C@H]3O)cc2O)cc1O [NHDC, neohesperidin dihydrochalcone]

EC50: 0.73 ± 0.03 µM
R1 = Variant EC50/WT EC50: 0.9
Max ΔF/F0: 0.60 ± 0.01
Molecule: COC(=O)[C@H](Cc1ccccc1)NC(=O)[C@H](CC(=O)O)NCCC(C)(C)C [Neotame]

EC50: 19.2 ± 0.9 µM
R1 = Variant EC50/WT EC50: 1.1
Max ΔF/F0: 1.39 ± 0.02
Molecule: C=C(C)[C@@H]1CC=C(/C=N/O)CC1 [Perillartine, perillartine]

EC50: 16.3 ± 0.5 µM
R1 = Variant EC50/WT EC50: 1.0
Max ΔF/F0: 1.08 ± 0.01
Molecule: C=C1C[C@@]23CC[C@H]4[C@@](C)(CCC[C@@]4(C)C(=O)O[C@@H]4O[C@H](CO)[C@@H](O)[C@H](O[C@@H]5O[C@H](CO)[C@@H](O)[C@H](O)[C@H]5O)[C@H]4O[C@@H]4O[C@H](CO)[C@@H](O)[C@H](O)[C@H]4O)[C@@H]2CC[C@]1(O[C@@H]1O[C@H](CO)[C@@H](O)[C@H](O[C@@H]2O[C@H](CO)[C@@H](O)[C@H](O)[C@H]2O)[C@H]1O[C@@H]1O[C@H](CO)[C@@H](O)[C@H](O)[C@H]1O)C3 [Rebaudioside M, rebaudioside M]

EC50: 81 ± 2 µM
R1 = Variant EC50/WT EC50: 0.9
Max ΔF/F0: 0.63 ± 0.01
Molecule: OC[C@H]1O[C@H](O[C@]2(CCl)O[C@H](CCl)[C@@H](O)[C@@H]2O)[C@H](O)[C@@H](O)[C@H]1Cl [Sucralose]

R1 = Variant EC50/WT EC50: 1.2
Max ΔF/F0: 1.14 ± 0.01
Molecule: brazzein (QDKCKKVYENYPVSKCQLANQCNYDCKLDKHARSGECFYDEKRNLQCICDYCEY; ends and bridges not checked; cysteine pairing not given here; UniProt P56552 1-54, looked up) [sweet-tasting protein obtained by recombinant production using the yeast Pichia pastoris]

R1 = Variant EC50/WT EC50: 1.9
Max ΔF/F0: 1.37 ± 0.02
Molecule: thaumatin

EC50: 14.1 ± 0.3 µM
B1: thaumatin (protein)
chain: ATFEIVNRCSYTVWAAASKGDAALDAGGRQLNSGESWTINVEPGTKGGKIWARTDCYFDDSGSGICKTGDCGGLLRCKRFGRPPTTLAEFSLNQYGKDYIDISNIKGFNVPMDFSPTTRGCRGVRCAADIVGQCPAKLKAPGGGCNDACTVFQTSEYCCTTGKCGPTEYSRFFKRLCPDAFSYVLDKPTTVTCPGSSNYRVTFCPTA
modifications: Eight disulfides
notes: sweet-tasting plant protein, E957

From article PMC11945486, “TAS1R2/TAS1R3 Single-Nucleotide Polymorphisms Affect Sweet Taste Receptor Activation by Sweeteners: The SWEET Project” (Nutrients, 2025)
